Source: US9012470B2 (Dart NeuroScience (Cayman) Ltd., priority 2010, dated 2015)

Test system: benzodiazepine site of GABAA
Assay: Binding assay, benzodiazepine site of GABAA (binding assay 1: rat brain, (3H)-flunitrazepam; binding assay 2: bovine hippocampal membranes, [3H]-RY80)
Conditions: radioligand binding; for % Inhibition at 0.1 μM: 0.1 μM test compound; for % Inhibition at 10 μM: 10 μM test compound
Description: The ability of a compound disclosed herein to act as ligand to the benzodiazepine site of GABAA can be determined using pharmacological models which are well known in the art using the following assay.
Binding assay 1: Whole brain (except cerebellum) of male Wistar derived rats weighing 175±25 g were used to prepare GABAA central benzodiazepine receptor in Na—K phosphate buffer pH 7.4. A 5 mg aliquot was incubated with 1 nM (^3H)-flunitrazepam for 60 minutes at 25° C. Experiments were performed in the presence or absence of 30 μM of GABA. Non-specific binding was estimated in the presence of 10 μM of diazepam. Membranes were filtered and washed, the filters were then counted to determine (^3H)-flunitrazepam specifically bound. Test compounds were tested in duplicate according to the required concentrations (Damm, H. W., et al. (1978) Res. Comm. Chem. Pathol. Pharmacol. 22: 597-560 incorporated herein in its entirety; Speth, R. C., et al. (1979) Life Sci. 24: 351-357 incorporated herein in its entirety).
Receptor Source: Bovine hippocampal membranes
Radioligand: [3H]-RY80 (40-80 Ci/mmol)
Final ligand concentration—[0.8 nM]
Non-specific Determinant: L-655,708—[0.5 μM]
Binding assay 2 followed procedures based on Li and Szabo (Li M., Szabo A., Rosenberg H. Evaluation of native GABAA receptors containing an α5 subunit. Eur. J. Pharmacol. 413: 63-72 (2001)). Incubation Conditions: Reactions are carried out in 50 mM Tris-Citrate (pH 7.8) containing 200 mM NaCl at 0-4° C. for 60 minutes. The reaction is terminated by rapid vacuum filtration onto glass fiber filters. Radioactivity trapped onto the filters is determined and compared to control values in order to ascertain any interactions of test compound with the benzodiazepine (central) binding site.

Row | SMILES | % Inhibition at 0.1 μM | % Inhibition at 10 μM
1 | CCNC(=O)n1ncc2c3nn(-c4ccccc4F)c(=O)c-3c[nH]c21 | B (B indicates % inhibition <80% and >20%) | A (A indicates % inhibition >80%)
2 | CC(C)NC(=O)n1ncc2c3nn(-c4ccccc4)c(=O)c-3c[nH]c21 [Compound 6a, N-isopropyl-3-oxo-2-phenyl-2,3-dihydrodipyrazolo[3,4-b:3′,4′-d]pyridine-6(5H)-carboxamide] | C (C indicates % inhibition <20%) | B (B indicates % inhibition <80% and >20%)
3 | CC(C)NC(=O)n1ncc2c3nn(-c4ccc(C(C)C)cc4)c(=O)c-3c[nH]c21 [Compound 6aa, N-isopropyl-2-(4-isopropylphenyl)-3-oxo-2,3-dihydrodipyrazolo[3,4-b:3′,4′-d]pyridine-6(5H)-carboxamide] | – | B (B indicates % inhibition <80% and >20%)
4 | CNC(=O)n1ncc2c3nn(-c4cccc(Cl)c4)c(=O)c-3c[nH]c21 [Compound 6ab, 2-(3-chlorophenyl)-N-methyl-3-oxo-2,3-dihydrodipyrazolo[3,4-b:3′,4′-d]pyridine-6(5H)-carboxamide] | – | A (A indicates % inhibition >80%)
5 | CCCCNC(=O)n1ncc2c3nn(-c4cccc(Cl)c4)c(=O)c-3c[nH]c21 [Compound 6ac, N-butyl-2-(3-chlorophenyl)-3-oxo-2,3-dihydrodipyrazolo[3,4-b:3′,4′-d]pyridine-6(5H)-carboxamide] | – | A (A indicates % inhibition >80%)
6 | CC(C)NC(=O)n1ncc2c3nn(-c4ccc(C(F)(F)F)cc4)c(=O)c-3c[nH]c21 [Compound 6af, N-isopropyl-3-oxo-2-(4-(trifluoromethyl)phenyl)-2,3-dihydrodipyrazolo[3,4-b:3′,4′-d]pyridine-6(5H)-carboxamide] | – | B (B indicates % inhibition <80% and >20%)
7 | CNC(=O)n1ncc2c3nn(-c4ccc(C(F)(F)F)cc4)c(=O)c-3c[nH]c21 [Compound 6ag, N-methyl-3-oxo-2-(4-(trifluoromethyl)phenyl)-2,3-dihydrodipyrazolo[3,4-b:3′,4′-d]pyridine-6(5H)-carboxamide] | – | B (B indicates % inhibition <80% and >20%)
8 | CCCCNC(=O)n1ncc2c3nn(-c4ccc(C(F)(F)F)cc4)c(=O)c-3c[nH]c21 [Compound 6ah, N-butyl-3-oxo-2-(4-(trifluoromethyl)phenyl)-2,3-dihydrodipyrazolo[3,4-b:3′,4′-d]pyridine-6(5H)-carboxamide] | – | B (B indicates % inhibition <80% and >20%)
9 | CCCCNC(=O)n1ncc2c3nn(-c4cccc(C(F)(F)F)c4)c(=O)c-3c[nH]c21 [Compound 6aj, N-butyl-3-oxo-2-(3-(trifluoromethyl)phenyl)-2,3-dihydrodipyrazolo[3,4-b:3′,4′-d]pyridine-6(5H)-carboxamide] | C (C indicates % inhibition <20%) | B (B indicates % inhibition <80% and >20%)
10 | CCCCNC(=O)n1ncc2c3nn(-c4ccc(F)cc4F)c(=O)c-3c[nH]c21 [Compound 6an, N-butyl-2-(2,4-difluorophenyl)-3-oxo-2,3-dihydrodipyrazolo[3,4-b:3′,4′-d]pyridine-6(5H)-carboxamide] | B (B indicates % inhibition <80% and >20%) | A (A indicates % inhibition >80%)
11 | CCNC(=O)n1ncc2c3nn(-c4ccc(F)cc4F)c(=O)c-3c[nH]c21 [Compound 6ao, 2-(2,4-difluorophenyl)-N-ethyl-3-oxo-2,3-dihydrodipyrazolo[3,4-b:3′,4′-d]pyridine-6(5H)-carboxamide] | B (B indicates % inhibition <80% and >20%) | A (A indicates % inhibition >80%)
12 | CC(C)CNC(=O)n1ncc2c3nn(-c4ccc(F)cc4F)c(=O)c-3c[nH]c21 [Compound 6aq, 2-(2,4-difluorophenyl)-N-isobutyl-3-oxo-2,3-dihydrodipyrazolo[3,4-b:3′,4′-d]pyridine-6(5H)-carboxamide] | C (C indicates % inhibition <20%) | B (B indicates % inhibition <80% and >20%)
13 | CCNC(=S)n1ncc2c3nn(-c4ccc(C(C)C)cc4)c(=O)c-3c[nH]c21 [Compound 6au, N-ethyl-2-(4-isopropylphenyl)-3-oxo-2,3-dihydrodipyrazolo[3,4-b:3′,4′-d]pyridine-6(5H)-carbothioamide] | B (B indicates % inhibition <80% and >20%) | A (A indicates % inhibition >80%)
14 | CC(C)NC(=O)n1ncc2c3nn(-c4ccc(Cl)cn4)c(=O)c-3c[nH]c21 [Compound 6aw, 2-(5-chloropyridin-2-yl)-N-isopropyl-3-oxo-2,3-dihydrodipyrazolo[3,4-b:3′,4′-d]pyridine-6(5H)-carboxamide] | – | B (B indicates % inhibition <80% and >20%)
15 | CC(C)CCNC(=O)n1ncc2c3nn(-c4ccccc4)c(=O)c-3c[nH]c21 [Compound 6g, N-isopentyl-3-oxo-2-phenyl-2,3-dihydrodipyrazolo[3,4-b:3′,4′-d]pyridine-6(5H)-carboxamide] | B (B indicates % inhibition <80% and >20%) | A (A indicates % inhibition >80%)
16 | CC(C)NC(=O)n1ncc2c3nn(-c4cc(C(F)(F)F)cc(C(F)(F)F)c4)c(=O)c-3c[nH]c21 [Compound 6r, 2-(3,5-bis(trifluoromethyl)phenyl)-N-isopropyl-3-oxo-2,3-dihydrodipyrazolo[3,4-b:3′,4′-d]pyridine-6(5H)-carboxamide] | – | B (B indicates % inhibition <80% and >20%)

Continued, values first:

Row | % Inhibition at 0.1 μM | % Inhibition at 10 μM | SMILES
17 | C (C indicates % inhibition <20%) | A (A indicates % inhibition >80%) | CCCCNC(=O)n1ncc2c3nn(-c4ccc(Cl)cc4F)c(=O)c-3c[nH]c21 [Compound 6ak, N-butyl-2-(4-chloro-2-fluorophenyl)-3-oxo-2,3-dihydrodipyrazolo[3,4-b:3′,4′-d]pyridine-6(5H)-carboxamide]
18 | C (C indicates % inhibition <20%) | A (A indicates % inhibition >80%) | CCCCNC(=O)n1ncc2c3nn(-c4ccccc4F)c(=O)c-3c[nH]c21 [Compound 6al, N-butyl-2-(2-fluorophenyl)-3-oxo-2,3-dihydrodipyrazolo[3,4-b:3′,4′-d]pyridine-6(5H)-carboxamide]
19 | C (C indicates % inhibition <20%) | A (A indicates % inhibition >80%) | CC(C)CCNC(=O)n1ncc2c3nn(-c4ccc(F)cc4F)c(=O)c-3c[nH]c21 [Compound 6ap, 2-(2,4-difluorophenyl)-N-isopentyl-3-oxo-2,3-dihydrodipyrazolo[3,4-b:3′,4′-d]pyridine-6(5H)-carboxamide]
20 | A (A indicates % inhibition >80%) | A (A indicates % inhibition >80%) | CCNC(=S)n1ncc2c3nn(-c4ccc(Br)cc4)c(=O)c-3c[nH]c21 [Compound 6at, 2-(4-bromophenyl)-N-ethyl-3-oxo-2,3-dihydrodipyrazolo[3,4-b:3′,4′-d]pyridine-6(5H)-carbothioamide]
21 | – | A (A indicates % inhibition >80%) | CNC(=O)n1ncc2c3nn(-c4ccc(Cl)cn4)c(=O)c-3c[nH]c21 [Compound 6ax, 2-(5-chloropyridin-2-yl)-N-methyl-3-oxo-2,3-dihydrodipyrazolo[3,4-b:3′,4′-d]pyridine-6(5H)-carboxamide]
22 | – | A (A indicates % inhibition >80%) | CNC(=O)n1ncc2c3nn(-c4ccc(Br)cc4)c(=O)c-3c[nH]c21 [Compound 6az, 2-(4-bromophenyl)-N-methyl-3-oxo-2,3-dihydrodipyrazolo[3,4-b:3′,4′-d]pyridine-6(5H)-carboxamide]
23 | C (C indicates % inhibition <20%) | A (A indicates % inhibition >80%) | CC(C)CNC(=O)n1ncc2c3nn(-c4ccccc4)c(=O)c-3c[nH]c21 [Compound 6e, N-isobutyl-3-oxo-2-phenyl-2,3-dihydrodipyrazolo[3,4-b:3′,4′-d]pyridine-6(5H)-carboxamide]
24 | C (C indicates % inhibition <20%) | C (C indicates % inhibition <20%) | O=C(N1CCCC1)n1ncc2c3nn(-c4ccccc4)c(=O)c-3c[nH]c21 [Compound 6k, 2-phenyl-6-(pyrrolidine-1-carbonyl)-5,6-dihydrodipyrazolo[3,4-b:3′,4′-d]pyridin-3(2H)-one]
25 | C (C indicates % inhibition <20%) | C (C indicates % inhibition <20%) | CC(C)NC(=O)n1ncc2c3nn(-c4ccc(Cl)cc4)c(=O)c-3c[nH]c21 [Compound 6p, 2-(4-chlorophenyl)-N-isopropyl-3-oxo-2,3-dihydrodipyrazolo[3,4-b:3′,4′-d]pyridine-6(5H)-carboxamide]
26 | – | C (C indicates % inhibition <20%) | CCNC(=O)n1ncc2c3nn(-c4cc(C(F)(F)F)cc(C(F)(F)F)c4)c(=O)c-3c[nH]c21 [Compound 6q, 2-(3,5-bis(trifluoromethyl)phenyl)-N-ethyl-3-oxo-2,3-dihydrodipyrazolo[3,4-b:3′,4′-d]pyridine-6(5H)-carboxamide]
